# Values quoted from earlier work in US12219980B2, “Nutritionally enhanced fraction from rice bran and method of lowering insulin resistance using same” (QJV, LLC, priority 2010, dated 2025).
# Assays:
# [1] = animal studies, compared with controls
# [2] = in vivo
# [3] = in vivo; remark: listed apart in the source
# HMG-CoA = biological target: T1, HMG-CoA (Homo sapiens, UniProt P04035); conditions: micromolar amounts
# T1 sequence (P04035 1-888): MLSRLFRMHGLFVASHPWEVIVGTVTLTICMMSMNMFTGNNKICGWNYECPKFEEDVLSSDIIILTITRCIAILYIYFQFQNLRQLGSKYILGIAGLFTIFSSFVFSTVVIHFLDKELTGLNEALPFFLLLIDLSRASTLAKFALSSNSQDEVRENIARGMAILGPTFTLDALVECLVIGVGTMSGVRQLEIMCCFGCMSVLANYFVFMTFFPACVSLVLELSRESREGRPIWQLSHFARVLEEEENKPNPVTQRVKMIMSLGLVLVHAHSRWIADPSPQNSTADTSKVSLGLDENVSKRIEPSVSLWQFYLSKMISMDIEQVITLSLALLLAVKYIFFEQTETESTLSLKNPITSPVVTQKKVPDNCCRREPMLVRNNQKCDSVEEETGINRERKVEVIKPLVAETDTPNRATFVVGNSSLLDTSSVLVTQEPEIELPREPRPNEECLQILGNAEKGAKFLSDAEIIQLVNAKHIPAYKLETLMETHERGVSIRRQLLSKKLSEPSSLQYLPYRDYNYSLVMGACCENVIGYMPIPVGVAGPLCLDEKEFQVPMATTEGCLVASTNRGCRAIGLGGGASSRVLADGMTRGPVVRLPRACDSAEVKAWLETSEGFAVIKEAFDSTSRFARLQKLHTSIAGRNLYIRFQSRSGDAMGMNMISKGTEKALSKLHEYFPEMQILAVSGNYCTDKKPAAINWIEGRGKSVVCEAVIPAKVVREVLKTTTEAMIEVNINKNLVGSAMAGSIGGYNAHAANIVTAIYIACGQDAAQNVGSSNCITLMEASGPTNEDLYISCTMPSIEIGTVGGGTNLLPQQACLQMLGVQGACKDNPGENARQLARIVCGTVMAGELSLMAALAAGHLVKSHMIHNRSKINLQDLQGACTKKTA
molecule,measurement,setting,value
COc1cc(/C=C/C(=O)O)ccc1O [ferulic acid],"activities of hepatic glucose-6-phosphate dehydrogenase, catalase and peroxidase",[1],diminishing
same,levels of glycogen in the liver and skeletal muscle,[1],significantly decreased
gamma-oryzanol,bile acid secretion and fecal excretion of cholesterol,[2],affect bile acid secretion and fecal excretion of cholesterol
tocotrienol,total cholesterol and LDL cholesterol in blood plasma,[3],lower
same,activity of HMG-CoA,HMG-CoA,suppress the activity of HMG-CoA
